In US10774082B2, “Quinazoline compound” (Astellas Pharma Inc., priority 2017, dated 2020):
pIC50: −log10 of the molar value. Read-outs that look alike come from different tables or passages of the source.

What was measured:
[1] = molecular target: T1, KRAS G12C/SOS/c-Raf complex (Homo sapiens, UniProt P01116, G12C); assay: KRAS G12C/SOS/c-Raf complex formation inhibitory action (TR-FRET); assay type: biochemical; conditions: one hour at room temperature, read-out: IC50 (KRAS G12C/SOS/c-Raf complex formation inhibition)
T1 construct: Biotinylated AviTag-KRAS G12C (amino acid region 1-185, GDP)
T1 sequence (P01116 1-185 isoform P01116-2 G12C, one chain of several): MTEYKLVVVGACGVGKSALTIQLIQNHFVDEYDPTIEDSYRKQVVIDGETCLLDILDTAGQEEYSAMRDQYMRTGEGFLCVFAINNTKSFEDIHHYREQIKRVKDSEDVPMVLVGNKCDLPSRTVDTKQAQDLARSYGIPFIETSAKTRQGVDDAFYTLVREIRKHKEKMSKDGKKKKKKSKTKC
Method: Evaluation of KRAS G12C/SOS/c-Raf Complex Formation Inhibitory Action
Human Recombinant KRAS G12C, SOS, and c-Raf protein were used, and with respect to the complex formation of these proteins, an inhibitory action of the test compound was examined through a time-resolved fluorescence resonance energy transfer (TR-FRET) method.
Biotinylated AviTag-KRAS G12C (amino acid region 1-185, GDP) (2.5 μL; 400 nM) dissolved in assay buffer (50 mM HEPES, 150 mM NaCl, 5 mM MgCl2, 0.05% Tween 20, pH 7.4) and test compound were added in a volume of 2.5 μL from 4,000 nM to 4 nM were added to 384 well plate (Corning Inc). Son of Sevenless (SOS) (amino acid region 564-1049, 2.5 μL; 1.3 μM) and c-Raf (amino acid region 51-131) GST containing GTP (Sigma-Aldrich Co. LLC) (2.5 μL; 130 nM and 4 μM of each) were added to the above mixture, and the resultant was left to stand for one hour at room temperature. Thereafter, a mixed solution (10 μL) of LANCE Ulight-anti-GST (120 nM, PerkinElmer. Co., Ltd) and LANCE Eu-W1024 labeled Streptoavidin (100 ng/mL, PerkinElmer. Co., Ltd) was added, and a fluorescence intensity on the condition of wavelength of 620 nm and 665 nm was measured by using EnVision 2103 Multilabel Reader (PerkinElmer Co., Ltd.) under the condition of excitation wavelength of 337 nm. […] In Tables, Ex represents Example numbers described later. In addition, in Tables, Compound C represents a test compound of Example I-59 disclosed in Pamphlet of International Publication No. WO 2016/164675, and the structures of Reference Example 1 and Reference Example 2 are indicated in Table 168 described below (the same shall apply hereinafter).

[2] = system: NCI-H1373 cells; assay: Anchorage-independent cell proliferation inhibitory action, NCI-H1373 spheroid three-dimensional culture; assay type: cell-based, Human; conditions: Homo sapiens, NCI-H1373, 144 h, read-out: IC50 (anchorage-independent cell proliferation inhibition)
Method: Evaluation of Anchorage-Independent Cell Proliferation Inhibitory Action with Respect to Human KRAS G12C Mutation Positive Non-Small Cell Lung Cancer Strain NCI-H1373
An anchorage-independent cell proliferation inhibitory action by the test compound was evaluated by a spheroid three-dimensional culture.
NCI-H1373 cells were seeded in cell low adsorption U bottom 384 well plates (Prime Surface: Sumitomo Bakelite Co., Ltd.) at 36 μL/well each so as to be 5×10^2 cell per well. The cell culture was performed under the same conditions as Test example 2.
The next day, the test compounds (six points in a range of final concentration 1,000 nM to 0.3 nM) and DMSO which is a solvent of the test compound as a negative control were diluted 100-fold with fresh medium, 4 μL each was added to each well. After culturing at 37° C. in the presence of 5% CO2 for six days, 20 μL of CellTiter Glo or to CellTiter Glo 2.0 (Promega Corporation) was added to each well. After stirring for one hour at room temperature using a plate mixer (FINEPCR), an emission signal was measured with ARVO X3 (PerkinElmer Co., Ltd.).
When a signal value in a DMSO treatment was set as 0% inhibition, and a signal value in cell-free medium only was set as 100% inhibition, a value of 50% inhibition (IC50) was calculated through Sigmoid-Emax model nonlinear regression analysis.

[3] = system: ERK phosphorylation (Thr 202/Tyr 204) in NCI-H1373 cells; assay: ERK phosphorylation inhibitory action in NCI-H1373 (Cell ELISA); assay type: cell-based, Human; conditions: Homo sapiens, NCI-H1373, 2 h, read-out: IC50 (ERK phosphorylation inhibition)
Method: Evaluation of ERK Phosphorylation Inhibitory Action with Respect to Human KRAS G12C Mutation Positive Non-Small Cell Lung Cancer Strain NCI-H1373
The ERK phosphorylation inhibitory action by the test compound was evaluated by measuring phosphorylation of 202th threonine (Thr 202) and 204th tyrosine (Tyr 204) of ERK on the downstream of the KRAS signal by Cell ELISA.
NCI-H1373 cells (ATCC, CRL-5866) were seeded in 384 well plates (Greiner bio-one) at 36 μL/well each so as to be 2×10^4 cell per well. Cell culture was performed under the conditions of temperature of 37° C. in the presence of 5% CO2 by using RPMI 1640 medium (Sigma-Aldrich Co. LLC) containing 10% fetal bovine serum (GE Life Sciences).
The next day, the test compounds (six points in a range of final concentration 1,000 nM to 0.3 nM), final concentration 1 μM of Trametinib (GlaxoSmithKline Inc.; MEK inhibitor) as a positive control, and DMSO which is a solvent of the test compound as a negative control were diluted 100-fold with fresh medium, 4 μL each was added to each well, and then cultured for 2 hours. Immediately after culturing, 30 μL of 30% glyoxal solution (Wako: 40% glyoxal diluted with Phosphate Buffered Saline (PBS; Wako)) was added to each well, and the cells were left to stand at room temperature for one hour to be fixed. Thereafter, the supernatant was removed by centrifuging the plate (110×g for 7 seconds, unless otherwise stated below under the same conditions), and 20 μL of PBS containing 0.1% Triton X-100 (Amersham Biosciences Corp.) was added to each well. After being left to stand at room temperature for 10 minutes, the supernatant was removed by centrifugation, and the same operation was repeated. Next, 20 μL of PBS containing 0.5% SDS (Invitrogen) was added to each well, and the mixture was left to stand at room temperature for 30 minutes, and then centrifuged to remove the supernatant. Subsequently, 20 μL of a blocking solution (ODYSSEY Blocking Buffer; LI-COR Biosciences) was added to each well, and left to stand at room temperature for one hour. The supernatant was removed by centrifugation, and 10 μL of a blocking solution prepared by diluting ERK (Thr 202/Tyr 204) of a phosphorylation antibody (Cell Signaling Technology, Inc.) as a primary antibody to be ½, 500 amount with respect to a stock solution was added to each well and was left to stand at 4° C. for overnight.
The next day, a reaction liquid is removed by centrifuging the plate, 20 μL of 0.05% Tween-20-containing PBS (Thermo Scientific; 20×PBS Tween-20 diluted 20-fold with ion exchanged water) was added to each well, and each well was washed by removing the supernatant by centrifugation. Washing was performed three times in total. After washing, 10 μL of a blocking solution prepared by diluting IRDye 800CW Goat anti-Rabbit IgG (LI-COR Biosciences) as a secondary antibody to be 1/1,000 amount with respect to a stock solution was added to each well and was left to stand at room temperature for one hour. The reaction liquid was removed by centrifuging the plate, and each well was washed three times with 0.05% Tween-20-containing PBS in the same manner as after primary antibody reaction. The centrifugation after the third wash was 171×g for 17 seconds. After removal of the cleaning solution, the plate was left to air dry at room temperature for three hours or more and the fluorescent signal at 800 nm was measured by Aerius (LI-COR Biosciences).
When a signal value at the time of adding DMSO was set as 0% inhibition, and a signal value at the time of adding 1 μM of Trametinib was set as 100% inhibition, a value of 50% inhibition (IC50) was calculated through Sigmoid-Emax model nonlinear regression analysis.

[4] = NCI-H1373 spheroid, six days, CellTiter Glo
[5] = NCI-H1373 cells, cultured for 2 hours, 100% = 1 μM Trametinib

| pIC50 [1] | pIC50 [2, 4] | pIC50 [3, 5] | SMILES | pIC50 [2] | pIC50 [3] |
| --- | --- | --- | --- | --- | --- |
| 7.47 | 7.92 | 8.19 | C=CC(=O)N1CC2(CCN(c3nc(OC4CCN(C)CC4)nc4c(OCC(F)F)c(-c5c(C)ccc6[nH]ncc56)c(C=C)cc34)CC2)C1 [Ex 1] | – | – |
| 7.68 | – | – | C=CC(=O)N1CC2(CCN(c3nc(OC4CCN(CCOC)CC4)nc4c(OCC(F)(F)F)c(-c5c(C)ccc6[nH]ncc56)c(C=C)cc34)CC2)C1 [Ex 36] | – | – |
| 7.82 | – | – | C=CC(=O)N1CC2(CCN(c3nc(OC4CCN(CCCOC)CC4)nc4c(OCC(F)(F)F)c(-c5c(C)ccc6[nH]ncc56)c(C5CC5)cc34)CC2)C1 [Ex 38] | – | – |
| 7.38 | 7.85 | 8.21 | C=CC(=O)N1CC2(CCN(c3nc(OC4CCN(CCOCC5CC5)CC4)nc4c(OCC(F)(F)F)c(-c5c(C)ccc6[nH]ncc56)c(C=C)cc34)CC2)C1 [Ex 41] | – | – |
| 7.23 | 7.62 | 8.05 | C=CC(=O)N1CC2(CCN(c3nc(SC4CCN(C)CC4)nc4c(OCC(F)(F)F)c(-c5c(C)ccc6[nH]ncc56)c(C=C)cc34)CC2)C1 [Ex 51] | – | – |
| 7.37 | 7.21 | 7.80 | COCCN1CCC(Oc2nc(N3CCC4(CC3)CN(C(=O)/C=C/C(F)(F)F)C4)c3cc(C4CC4)c(-c4c(C)ccc5[nH]ncc45)c(OCC(F)F)c3n2)CC1 [Ex 82] | – | – |
| 7.49 | 8.46 | 8.59 | C=CC(=O)N1CC2(CCN(c3nc(OC4CCN(CC)CC4)nc4c(OCC)c(-c5c(C)c(F)cc6[nH]ncc56)c(C=C)cc34)CC2)C1 [Example 8] | – | – |
| 7.26 | 8.26 | 8.42 | C=CC(=O)N1CC2(CCN(c3nc(OC4CCN(CC)CC4)nc4c(OCC(F)(F)F)c(-c5c(C)ccc6[nH]ncc56)c(C=C)cc34)CC2)C1 [Example 9] | – | – |
| 7.47 | 8.00 | 8.24 | C=CC(=O)N1CC2(CCN(c3nc(OC4CCN(CC)CC4)nc4c(OCC(F)F)c(-c5c(C)ccc6[nH]ncc56)c(C=C)cc34)CC2)C1 [Example 10] | – | – |
| 7.42 | 7.92 | 8.00 | C=CC(=O)N1CC2(CCN(c3nc(OC4CCN(CC)CC4)nc4c(OC5CC(F)(F)C5)c(-c5c(C)ccc6[nH]ncc56)c(C=C)cc34)CC2)C1 [Example 11] | – | – |
| 7.34 | 8.14 | 8.23 | C=CC(=O)N1CC2(CCN(c3nc(OC4CCN(CC)CC4)nc4c(OCC)c(-c5c(C)ccc6[nH]ncc56)c(C5CC5)cc34)CC2)C1 [Example 18] | – | – |
| 7.32 | 7.82 | 8.35 | C=CC(=O)N1CC2(CCN(c3nc(OC4CCN(CC)CC4)nc4c(OC5CCC5)c(-c5c(C)ccc6[nH]ncc56)c(C5CC5)cc34)CC2)C1 [Example 19] | – | – |
| 7.49 | 7.96 | 8.19 | C=CC(=O)N1CC2(CCN(c3nc(OC4CCN(CC)CC4)nc4c(OC5CCC5)c(-c5c(C)ccc6[nH]ncc56)c(C=C)cc34)CC2)C1 [Example 20] | – | – |
| 7.19 | 7.57 | 7.85 | C=CC(=O)N1CC2(CCN(c3nc(OC4CCN(CC)CC4)nc4c(OCC)c(-c5c(Cl)ccc6[nH]ncc56)c(C=C)cc34)CC2)C1 [Example 21] | – | – |
| 7.41 | 7.82 | 8.34 | C=CC(=O)N1CC2(CCN(c3nc(OC4CCN(CC)CC4)nc4c(OCC(F)F)c(-c5c(C)ccc6[nH]ncc56)c(C5CC5)cc34)CC2)C1 [Example 22] | – | – |
| 7.41 | 8.23 | 8.31 | C=CC(=O)N1CC2(CCN(c3nc(OC[C@@H]4CCCN4C)nc4c(OCC)c(-c5c(C)ccc6[nH]ncc56)c(C5CC5)cc34)CC2)C1 [Example 23] | – | – |
| 7.40 | 8.19 | 8.48 | C=CC(=O)N1CC2(CCN(c3nc(OC4CCN(CCCOC)CC4)nc4c(OCC(F)(F)F)c(-c5c(C)ccc6[nH]ncc56)c(C=C)cc34)CC2)C1 [Example 27] | – | – |

| SMILES | pIC50 [1] | pIC50 [2, 4] | pIC50 [3, 5] | pIC50 [2] | pIC50 [3] |
| --- | --- | --- | --- | --- | --- |
| C=CC(=O)N1CC2(CCN(c3nc(OC4CCN(C(C)C)CC4)nc4c(OCC)c(-c5c(C)ccc6[nH]ncc56)c(C=C)cc34)CC2)C1 [Example 12] | 7.64 | – | – | 7.96 | 8.17 |
| C=CC(=O)N1CC2(CCN(c3nc(OC4CCN(CCOC)CC4)nc4c(OCC)c(-c5c(C)ccc6[nH]ncc56)c(C=C)cc34)CC2)C1 [Example 13] | 7.43 | – | – | 7.89 | 7.96 |
| C=CC(=O)N1CC2(CCN(c3nc(OC[C@@H]4CCCN4C)nc4c(OCC(F)F)c(-c5c(C)ccc6[nH]ncc56)c(C=C)cc34)CC2)C1 [Example 14] | 7.30 | – | – | 8.06 | 8.21 |
| C=CC(=O)N1CC2(CCN(c3nc(OC4CCN(C)CC4)nc4c(OC5CCC5)c(-c5c(C)ccc6[nH]ncc56)c(C=C)cc34)CC2)C1 [Example 17] | 7.47 | – | – | 7.92 | 8.31 |
